How the values were obtained:
Muc5AC = test: Western blot of Muc5AC in IL-13-treated SAEC monolayer; type: cell-based, human; conditions: IL-13 48 h, immunoblotting
Method: (§1) FIGS. 6A-6B. AR inhibition prevents IL-13-induced expression of Mucin and transcription factor SPDEF in airway epithelial cell monolayer. (A) The airway epithelial cell monolayer at ALI was serum starved without or with fidarestat and incubated with IL-13 for 18 h. Total RNA was isolated and subsequently RT-PCR was performed to assess the expression of Muc5AC and SPDEF. The bar diagrams show densitometric analysis of the corresponding blots (n=4). *p<0.001 vs Control; **p<0.001 vs IL-13; (B) The monolayer of ciliated airway cells at ALI was treated with AR inhibitor for 24 h and subsequently incubated with IL-13 for 24 or 48 h. At the end of incubation, cell lysate was prepared and subjected to western blotting using antibodies against Muc5AC, Muc5B, and SPDEF. The membranes were stripped and re-probed with antibodies against GAPDH to show the equal loading of protein. A representative blot is shown (n=4). *p<0.0001 vs Control; **p<0.001 vs IL-13. […] Protein levels were determined using Bradford reagent (Biorad, Hercules, Calif.). […] The blots were then washed, exposed to HRP-conjugated secondary antibodies (1:5,000 dilution) for 1 h, and the antigen-antibody complex was detected by enhanced chemiluminescence (Amersham Pharmacia Biotech, Piscataway, N.J., USA). […]

SPDEF = test: Western blot of SPDEF in IL-13-treated SAEC monolayer; type: cell-based, human; conditions: airway epithelial monolayer, IL-13 24 and 48 h, immunoblotting
Method: as §1

STAT-6 = test: RWE-induced STAT-6 phosphorylation in mouse lung epithelium (immunostaining); type: in vivo; conditions: RWE-sensitized and challenged mice, fidarestat 7 mg/kg body wt/day in drinking water, 20 h after challenge
Method: FIGS. 9A-9B. AR inhibition prevents phosphorylation of STAT-6 in mouse lung epithelium. The mice were sensitized and challenged with PBS or RWE, without or with AR inhibitor and 20 h later lungs were perfused and fixed with 4% paraformaldehyde, embedded in paraffin, and sectioned to […]. The sections were immunostained with p-STAT-6 specific antibodies using immunofluoroscence secondary antibodies (A) or DAB-based HRP conjugated antibodies counterstained with hematoxylin and eosin (B). Photomicrographs were acquired by fluorescence or light microscopy. A representative field for each group is shown (magnification: 200×). […] RWE, ragweed pollen extract; ARI, aldose reductase inhibitor.
Wild type C57BL/6 and Balb/cJ mice were purchased from Harlan Sprague-Dawley (San Diego, Calif., USA) and AR null mice on C57BL/6 background were bread by us at Animal resource center, UTMB, Galveston, Tex. Six-eight weeks old female mice were sensitized with RWE as previously described (Hwang et al., FASEB J. 19: 795-797, 2005). […]
Approximately 20 h after RWE-challenge, mice are killed, and their lungs perfused and fixed with 4% paraformaldehyde, embedded in paraffin, and 5 μm sections were obtained. […] Photomicrographs were acquired by a Photometrix CoolSNAP Fx camera mounted on a NIKON Eclipse TE 200 UV microscope using fluorescence or bright-field microscopy, respectively.

NC(=O)[C@@H]1C[C@]2(NC(=O)NC2=O)c2cc(F)ccc2O1 [fidarestat, (2S,4S)-2-aminoformyl-6-fluoro-spiro[chroman-4,4′-imidazolidine]-2′,5′-dione]
prevention of IL-13-induced increase in Muc5AC protein (Muc5AC): ~75%
prevention of IL-13-induced increase in SPDEF protein (SPDEF): ~50%
RWE-induced phospho-STAT-6 staining in lung epithelium (STAT-6): prevented by AR inhibition
